Patent US10669240B2, “5-substituted indazole-3-carboxamides and preparation and use thereof” (Samumed, LLC, priority 2014, dated 2020)

Legend:
Assay type in all cases: cell-based
[1] = system: primary human mesenchymal stem cells (hMSCs); experiment: Chondrogenesis assay in primary human mesenchymal stem cells, nodule count vs TGF-β3 positive control; conditions: 6 days
From the text: The above synthesized compounds were screened using primary human mesenchymal stem cells (hMSCs) to determine their ability to induce chondrogenesis (process by which cartilage is developed).
Human Mesenchymal Stem Cell Culture:
Primary human mesenchymal stem cells (hMSCs) were purchased from Lonza (Walkersville, Md.) and expanded in Mesenchymal Stem Cell Growth Media (Lonza). Cells between passage 3 and 6 were used for the experiments.
Number of nodules in each well was normalized to the average of 3 DMSO treated wells on the same plate using Excel (Microsoft Inc.). The normalized averages (fold change over DMSO) of 3 replicate wells for each compound concentration were calculated. Due to solubility limitations of some of the compounds, curve fitting was incomplete leading to inaccurate EC50 determinations.
Using TGF-β3 as a positive control, the concentration of test compounds required to induce equivalent levels of chondrogenesis is reported. In addition, the maximum activity of each compound and the respective dose that each compound reached maximum chondrogenesis activity is reported.

[2] = target: DYRK1A (Homo sapiens (Human), UniProt Q13627); experiment: DYRK1A activity Tau assay: pSer396 Tau in SH-SY5Y cells by ELISA / western blot; conditions: overnight (16-18 h) exposure
[3] = system: primary human fibroblasts derived from IPF patients (LL29 cells); experiment: Inhibition of the fibrotic process: αSMA staining in TGF-β1 treated LL29 fibroblasts; conditions: Fibroblast, 72 h, TGF-β1 10 ng/ml, 3 days, read-out: Inhibition of fibrosis IC50
Protocol: The above synthesized compounds were screened using primary human fibroblasts (derived from IPF patients) treated with TGF-β1 to determine their ability to inhibit the fibrotic process.
Each compound was dissolved in DMSO as a 10 mM stock and used to prepare compound source plates. […] LL29 cells were plated at 1,000 cells/well in 50 μl/well serum free F12 medium. […] Wells untreated with TGF-β1 were used as control for normalization and calculating IC50 values. Cells were incubated at 37° C. and 5% CO2 for 3 days. Cells were fixed using 4% formaldehyde (Electron Microscopy Sciences), washed 3 times with PBS followed by blocking and permeabilization using 3% Bovine Serum Albumin (BSA; Sigma) and 0.3% Triton X-100 (Sigma) in PBS. […] The IC50 values are reported.

[4] = system: Wnt activity (Wnt-responsive SP5 promoter luciferase reporter in SW480 cells); experiment: Wnt activity reporter assay: SW480 cells with SP5 promoter-driven firefly luciferase; conditions: Homo sapiens, 24 h after compound addition, read-out: Wnt inhibition
How it was run: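 SW480 cells (APC-mutant colon line) stably carrying a lentiviral SP5-promoter (eight TCF/LEF sites) firefly luciferase reporter were plated at ~10,000 cells/well. Luminescence was normalized to DMSO-only cells and used for IC50.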

## COc1ccc(NC(=O)c2n[nH]c3ccc(-c4cncc(CN5CCCC5)c4)cc23)cn1 [Compound 53, N-(6-Methoxypyridin-3-yl)-5-(5-(pyrrolidin-1-ylmethyl)pyridin-3-yl)-1H-indazole-3-carboxamide]
[1]; 6-point dose-response 2700 nM to 10 nM, dose at which maximum chondrogenesis activity was reached
  Conc (nM) of Max. activity: 2700 nM
[1]; relative to TGF-β3 (10 ng/mL) positive control
  Max. Activity as % TGF-β3 activity: 86%
[2]
  EC50: 2 nM
[3]
  IC50: 231 nM
[4]
  IC50: 50 nM
